Values quoted from earlier work as cited in patent publication US20070250270A1, “Cellular predictive models for toxicities” (Cytokinetics, Inc., priority 2006, published 2007).
Starred links: 1 amine or outer side, 2 acyl side, 3 side chain; linkers in the order of their positions; H or OH if unused. Positions of bridges follow the written chain, without caps; N, C: chain ends. Non-standard residues stand in square brackets, D forms with d. Residues, ends and D or L forms follow the SMILES beside them. Trp(2-yl) = O=C([C@H](Cc1c([*:3])[nH]c2ccccc12)N[*:1])[*:2]; Leu(4R-OH,5-OH) = C[C@](O)(CO)C[C@H](N)C(=O)O; cisHyp = O=C(O)[C@@H]1C[C@H](O)CN1

Tests used:
bile flow = details: rats

SMILES	effect on bile flow, resulting in cholestatic injury (bile flow)	effect on filamentous F actin around canaliculi and tight junctions (filamentous F actin)
C=C1[C@@H](C)[C@H]2[C@H](Cc3ccccc3)NC(=O)[C@]23OC(=O)/C=C/[C@H](O)CCC[C@@H](C)C/C=C/[C@H]3[C@@H]1O [cytochalasin B]	prompt arrest of bile flow	–
C[C@@H]1NC(=O)[C@H](C[C@@](C)(O)CO)NC(=O)[C@@H]2Cc3c([nH]c4ccccc34)SC[C@H](NC(=O)[C@@H]([C@H](C)O)NC1=O)C(=O)N1C[C@@H](O)C[C@H]1C(=O)N[C@@H](C)C(=O)N2 [phalloidin] (cyclo(A[dT]C[cisHyp]A[Trp(2-yl)][Leu(4R-OH,5-OH)]); thioether 3-6)	–	increase in filamentous F actin around canaliculi and tight junctions
